Data as given in patent US20240043448A1, “Small Molecule Inhibitors of KRAS G12C Mutant” (Merck Sharp & Dohme LLC, priority 2019, published 2024).
Read-outs that look alike come from different tables or passages of the source.

Legend:
[1] = molecular target: Biotinylated KRAS G12C protein (Homo sapiens (Human), UniProt P01116, C118S/C51S/C80L/G12C); test: SOS-catalyzed nucleotide exchange assay (TR-FRET); assay type: biochemical; conditions: in vitro apparent potency; preincubation time of 60 minutes prior to addition of SOS
Biotinylated KRAS G12C protein, sequence (P01116 other isoform, or with tags, fused parts or gaps, stated change not applied): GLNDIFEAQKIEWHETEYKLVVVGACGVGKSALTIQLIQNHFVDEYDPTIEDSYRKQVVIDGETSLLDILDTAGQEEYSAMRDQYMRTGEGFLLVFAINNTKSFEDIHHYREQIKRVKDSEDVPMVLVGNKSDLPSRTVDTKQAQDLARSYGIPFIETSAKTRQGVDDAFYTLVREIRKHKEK
Outline: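 Biotinylated KRAS G12C preloaded with Bodipy-GDP and Tb-streptavidin, then incubated with compound (10-point, 3-fold series) for 60 min at RT. Exchange started with SOS and GTP for 60 min. TR-FRET 520/495 ratio normalised to DMSO and saturating-inhibitor controls; four-parameter fit.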

phospho-ERK = test: Cellular phospho-ERK assay; assay type: cell-based; conditions: NCI-H358 cells, 2 hour incubation, ratio of p-Erk vs total Erk, read-out: IC50 (nM) pERK (Cell)
Outline: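 NCI-H358 cells seeded overnight, then exposed to compound dose-response titrations for 2 hours at 37° C. in RPMI. Lysates assayed by AlphaLISA SureFire Ultra multiplex for p-Erk and total Erk; ratio p-Erk/total Erk used as readout, IC50 from 4-parameter logistic fit.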

Row | IC50 [1] [nM] | IC50 (phospho-ERK; Homo sapiens, NCI-H358, 2 h) [nM] | IC50 (phospho-ERK) [nM] | Compound
1 | 10 | – | 35 | C=CC(=O)N1CCN(c2nc(=O)n3c4nc(c(F)cc24)-c2c(F)cccc2COCCc2ccnc(C(C)C)c2-3)[C@@H](C)C1 [Example 18a, 17,20-difluoro-2-[(2S)-2-methyl-4-(prop-2-enoyl)piperazin-1-yl]-6-(propan-2-yl)-10,11-dihydro-1,18-ethenopyrido[3,4-e]pyrimido[6,1-c][9,2,4]benzoxadiazacyclododecin-4(13H)-one]
2 | 8530 | – | 22100 | C=CC(=O)N1C[C@H](C)N(c2nc(=O)n3c4nc(c(F)cc24)-c2c(F)cccc2OCC(F)(F)COc2ccnc(C(C)C)c2-3)C[C@H]1C (single isomer, unassigned) [Example 13b]
3 | 15 | – | 93 | C=CC(=O)N1CCN(c2nc(=O)n3c4nc(c(F)cc24)-c2cccc4cnn(c24)CCCOc2ccnc(C(C)C)c2-3)[C@H](C)C1 [Example 3b, 22-fluoro-2-[(2S)-2-methyl-4-(prop-2-enoyl)piperazin-1-yl]-6-(propan-2-yl)-12,13-dihydro-4H,11H-1,20-ethenopyrido[4′,3′:2,3]pyrimido[1′,6′:4,5][1,4,6,10]oxatriazacyclotridecino[8,9,10-hi]indazol-4-one]

The next lines start with the compound.

Row | Compound | IC50 [1] [nM] | IC50 (phospho-ERK; Homo sapiens, NCI-H358, 2 h) [nM] | IC50 (phospho-ERK) [nM]
4 | C=CC(=O)N1C[C@H](C)N(c2nc(=O)n3c4nc(c(F)cc24)-c2c(cc(F)c(F)c2F)OCCCc2ccnc(C(C)C)c2-3)C[C@H]1C [Example 80, 2-[(2S,5R)-2,5-dimethyl-4-(prop-2-enoyl)piperazin-1-yl]-15,16,17,20-tetrafluoro-6-(propan-2-yl)-11,12-dihydro-4H,10H-1,18-ethenopyrido[4,3-d]pyrimido[1,6-g][1,7,9]benzoxadiazacyclododecin-4-one] | 2.6 | 54 | –
5 | C=CC(=O)N1C[C@H](C)N(c2nc(=O)n3c4nc(c(C)cc24)-c2c(F)ccc(F)c2OCCCc2ccnc(C(C)C)c2-3)C[C@H]1C (single isomer, unassigned) [Example 120] | 4.3 | – | 11
6 | [2H]C1([2H])Oc2ccnc(C(C)C)c2-n2c(=O)nc(N3C[C@@H](C)N(C(=O)C=C)C[C@@H]3C)c3cc(F)c(nc32)-c2c(F)ccc(F)c2OC1([2H])[2H] [Example 67, 2-[(2S,5R)-2,5-Dimethyl-4-(prop-2-enoyl)piperazin-1-yl]-14,17,20-trifluoro-6-(propan-2-yl)-11,12-di[(^2H)hydro](11,12-^2H2)-4H-1,18-(ethanediylidene)pyrido [4,3-e]pyrimido[1,6-g][1,4,7,9] benzodioxadiazacyclo-dodecin-4-one] | 12 | 50 | –
7 | C=CC(=O)N1CCN(c2nc(=O)n3c4nc(c(F)cc24)-c2c(F)ccc(F)c2OCCCCc2ccnc(C(C)C)c2-3)[C@@H](C)C1 [Example 79, 15,18,21-trifluoro-2-[(2S)-2-methyl-4-(prop-2-enoyl)piperazin-1-yl]-6-(propan-2-yl)-10,11,12,13-tetrahydro-4H-1,19-(ethanediylidene)pyrido[4,3-f]pyrimido[1,6-h][1,8,10]benzoxadiazacyclotridecin-4-one] | 2.6 | 7 | –
8 | C=CC(=O)N1CCN(c2nc(=O)n3c4nc(c(F)cc24)-c2c(F)cccc2OCCCCc2ccnc(C(C)C)c2-3)[C@H](C)C1 [Example 4b, 18,21-Difluoro-2-[(2S)-2-methyl-4-(prop-2-enoyl)piperazin-1-yl]-6-(propan-2-yl)-10,11,12,13-tetrahydro-4H-1,19-ethenopyrido[4,3-f]pyrimido[1,6-h][1,8,10]benzoxadiazacyclotridecin-4-one] | 6890 | – | 1160
9 | C=CC(=O)N1C[C@H](C)N(c2nc(=O)n3c4nc(c(F)cc24)-c2c(F)ccc(F)c2OCCCc2ccnc(C(C)C)c2-3)C[C@H]1C [Example 95, 2-[(2S,5R)-2,5-dimethyl-4-(prop-2-enoyl)piperazin-1-yl]-14,17,20-trifluoro-6-(propan-2-yl)-11,12-dihydro-4H,10H-1,18-(ethanediylidene)pyrido[4,3-e]pyrimido[1,6-g][1,7,9]benzoxadiazacyclododecin-4-one] | 2.5 | 15 | –
10 | [2H]C1([2H])Oc2ccc(F)c(F)c2-c2nc3c(cc2Cl)c(N2CC(C)N(C(=O)C=C)CC2C)nc(=O)n3-c2c(ccnc2C(C)C)OC1([2H])[2H] [Example 57, (5aSa,17aRa)-20-chloro-2-[(2S,5R)-2,5-dimethyl-4-(prop-2-enoyl)piperazin-1-yl]-16,17-difluoro-6-(propan-2-yl)-11,12-di[(^2H)hydro](11,12-^2H2)-4H-1,18-(ethanediylidene)pyrido [4,3-e]pyrimido[1,6-g] [1,4,7,9]benzodioxadiaza-cyclododecin-4-one] | 0.51 | 6.1 | –
11 | C=CC(=O)N1CC2CCC1CN2c1nc(=O)n2c3nc(c(F)cc13)-c1c(F)cccc1OCCCc1ccnc(C(C)C)c1-2 (stereo not shown) [Example 106, 17,20-difluoro-4-oxo-6-(propan-2-yl)-2-[5-(prop-2-enoyl)-2,5-diazabicyclo[2.2.2]octan-2-yl]-11,12-dihydro-4H,10H-1,18-ethenopyrido[4,3-e]pyrimido[1,6-g][1,7,9] benzoxadiazacyclododecin-4-one] | 2550 | – | 5620
12 | C=CC(=O)N1C[C@H](C)N(c2nc(=O)n3c4nc(c(F)cc24)-c2c(ccc(F)c2F)OCC(F)(F)CCc2ncnc(C(C)C)c2-3)C[C@H]1C [Example 58, 2-[(2S,5R)-2,5-dimethyl-4-(prop-2-enoyl)piperazin-1-yl]-12,12,17,18,21-pentafluoro-6-(propan-2-yl)-10,11,12,13-tetrahydro-4H-1,19-(ethanediylidene)dipyrimido [4,5-f:1′,6′-h][1,8,10] benzoxadiazacyclo-tridecin-4-one] | 0.74 | 14 | –
13 | C=CC(=O)N1CCN(c2nc(=O)n3c4nc(c(F)cc24)-c2c(F)cccc2OCCCc2ccnc(C(C)C)c2-3)[C@@H](C)C1 (single isomer, unassigned) [Example 10b] | 2590 | – | 4380
14 | C=CC(=O)N1CC2CCC1CN2c1nc(=O)n2c3nc(c(F)cc13)-c1c(F)cccc1OCCCc1ccnc(C(C)C)c1-2 (stereo not shown) [Example 105, 17,20-difluoro-6-(propan-2-yl)-2-[5-(prop-2-enoyl)-2,5-diazabicyclo[2.2.2]octan-2-yl]-11,12-dihydro-4H,10H-1,18-ethenopyrido[4,3-e]pyrimido[1,6-g][1,7,9]benzoxadiazacyclododecin-4-one] | 1910 | 3600 | –
15 | C=CC(=O)N1C[C@H](C)N(c2nc(=O)n3c4nc(c(F)cc24)-c2cccc4cnn(c24)CCCCc2ccnc(C(C)C)c2-3)C[C@H]1C [Example 68, 2-[(2S,5R)-2,5-dimethyl-4-(prop-2-enoyl)piperazin-1-yl]-22-fluoro-6-(propan-2-yl)-10,11,12,13-tetrahydro-4H-1,20-(ethanediylidene)pyrido [4′,3′:12,13]pyrimido [1′,6′:1,2][1,3,7]triaza-cyclotridecino[5,6,7-hi] indazol-4-one] | 4.5 | 6.3 | –
16 | C=CC(=O)N1C[C@H](C)N(c2nc(=O)n3c4nc(c(Cl)cc24)-c2c(F)cccc2OCCc2ccnc(C(C)C)c2-3)C[C@H]1C (atropisomer, axis not shown) [Example 119, 19-chloro-2-[(2S,5R)-2,5-dimethyl-4-(prop-2-enoyl)piperazin-1-yl]-16-fluoro-6-(propan-2-yl)-10,11-dihydro-4H-1,17-ethenopyrido[4,3-d]pyrimido[1,6-f][1,6,8]benzoxadiazacycloundecin-4-one] | 2.6 | – | 5.1
17 | C=CC(=O)N1C[C@H](C)N(c2nc(=O)n3c4nc(c(F)cc24)-c2cccc(F)c2OCCOc2ccnc(C(C)C)c2-3)C[C@H]1C [Example 114, 2-[(2S,5R)-2,5-dimethyl-4-(prop-2-enoyl)piperazin-1-yl]-14,20-difluoro-6-(propan-2-yl)-11,12-dihydro-4H-1,18-(ethanediylidene)pyrido[4,3-e]pyrimido[1,6-g][1,4,7,9]benzodioxadiazacyclododecin-4-one] | 43 | – | 112
18 | C=CC(=O)N1C[C@@H]2C[C@H]1CN2c1nc(=O)n2c3nc(c(F)cc13)-c1c(F)cccc1OCCCCc1ccnc(C(C)C)c1-2 [Example 104, 18,21-difluoro-6-(propan-2-yl)-2-[(1S,4S)-5-(prop-2-enoyl)-2,5-diazabicyclo[2.2.1]heptan-2-yl]-10,11,12,13-tetrahydro-4H-1,19-ethenopyrido[4,3-f]pyrimido[1,6-h][1,8,10]benzoxadiazacyclotridecin-4-one] | 1470 | 8850 | –
19 | C=CC(=O)N1CCN(c2nc(=O)n3c4nc(c(F)cc24)-c2cccc4cnn(c24)CCCCc2ccnc(C(C)C)c2-3)[C@@H](C)C1 [Example 6, 22-fluoro-2-[(2S)-2-methyl-4-(prop-2-enoyl)piperazin-1-yl]-6-(propan-2-yl)-10,11,12,13-tetrahydro-4H-1,20-(ethanediylidene)-pyrido[4′,3′:12,13]pyrimido-[1′,6′:1,2][1,3,7]triazacyclo-tridecino[5,6,7-hi]indazol-4-one] | 9.2 | 45 | –
20 | C=CC(=O)N1CCN(c2nc(=O)n3c4nc(c(Cl)cc24)-c2c(F)cccc2OCCc2ccccc2-3)[C@@H](C)C1 [Example 9, 19-chloro-16-fluoro-2-[(2S)-2-methyl-4-(prop-2-enoyl)piperazin-1-yl]-10,11-dihydro-4H-1,17-ethenodibenzo[b,h]pyrimido[6,1-f][1,5,7]oxadiazacycloundecin-4-one] | 1410 | – | 3830
